Article PMC5404560, “Towards Selective Mycobacterial ClpP1P2 Inhibitors with Reduced Activity against the Human Proteasome” (Antimicrobial Agents and Chemotherapy, 2017)
Converted amounts (≈) assume the structure as drawn. Counter-ions that a name gives are not always drawn.

Tests used:
ClpP1P2 = ClpP1P2 (Mycolicibacterium smegmatis, UniProt A0R197+A0R198); test: ClpP1P2 inhibition whole-cell RFP-SsrA reporter assay; settings: read-out: M. smegmatis ΔprcAB IC50 (μM) for ClpP1P2; whole-cell RFP-SsrA reporter, 3 h incubation
Sequence of ClpP1P2 (A0R198 4-203): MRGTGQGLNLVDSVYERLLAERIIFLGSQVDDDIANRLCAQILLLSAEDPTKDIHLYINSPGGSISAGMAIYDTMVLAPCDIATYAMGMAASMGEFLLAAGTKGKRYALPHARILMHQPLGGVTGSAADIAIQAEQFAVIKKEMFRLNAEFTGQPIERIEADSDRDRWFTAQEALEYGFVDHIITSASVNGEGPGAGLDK
Sequence of ClpP1P2 (A0R197 17-218): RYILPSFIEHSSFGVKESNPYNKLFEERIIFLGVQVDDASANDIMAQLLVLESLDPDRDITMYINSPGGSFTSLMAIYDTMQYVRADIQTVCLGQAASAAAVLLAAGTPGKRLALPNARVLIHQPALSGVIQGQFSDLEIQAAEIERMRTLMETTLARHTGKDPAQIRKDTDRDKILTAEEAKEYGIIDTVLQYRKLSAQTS

M. tuberculosis H37Rv = test: microbe, parasite or virus in culture; type: cell-based; settings: Mycobacterium tuberculosis, H37RV, 120 h, 5 days
[1] = MTS cytotoxicity assay, Vero; type: cell-based; settings: African green monkey
Procedure: (§1) The MTS (Promega) reduction assay was used according to manufacturer's guidelines to assess Vero (ATCC […]) and HepG2 (ATCC HB-8065) cell viability. […] Carbonyl cyanide m-chlorophenylhydrazone (CCCP) was used as a cytotoxic positive control. Cytotoxicity was determined twice in independent experiments.

[2] = MTS cytotoxicity assay, HepG2; type: cell-based, human; settings: human
Procedure: as §1

Mycobacterium bovis BCG = test: microbe, parasite or virus in culture; type: cell-based; settings: Mycobacterium tuberculosis variant bovis BCG, read-out: MIC50 for Mycobacterium bovis BCG
M. smegmatis ΔprcAB = type: cell-based; settings: 24 h exposure, OD600; concentration inhibiting 50% of growth
M. smegmatis wild-type = test: Growth inhibition, M. smegmatis wild type; type: cell-based; settings: Mycolicibacterium smegmatis; wild-type strain
Kallikrein 14 = Kallikrein 14 (Homo sapiens, UniProt Q9P0G3); test: Protease panel: Kallikrein 14; type: biochemical; settings: supplement panel table, test and control compound
Sequence of Kallikrein 14 (Q9P0G3 41-267, species assumed): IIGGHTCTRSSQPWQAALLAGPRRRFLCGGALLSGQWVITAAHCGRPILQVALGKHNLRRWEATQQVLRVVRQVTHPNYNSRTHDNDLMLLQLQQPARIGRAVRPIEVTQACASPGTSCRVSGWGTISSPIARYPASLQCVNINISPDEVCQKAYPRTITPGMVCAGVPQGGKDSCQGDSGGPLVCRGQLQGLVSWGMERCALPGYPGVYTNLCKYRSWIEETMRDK
Procedure: (§2) Protease panel testing was carried out by Reaction Biology Corporation.

Kallikrein 13 = Kallikrein 13 (Homo sapiens, UniProt Q9UKR3); test: Protease panel: Kallikrein 13; type: biochemical; settings: supplement panel table, test and control compound
Sequence of Kallikrein 13 (Q9UKR3 17-277, species assumed): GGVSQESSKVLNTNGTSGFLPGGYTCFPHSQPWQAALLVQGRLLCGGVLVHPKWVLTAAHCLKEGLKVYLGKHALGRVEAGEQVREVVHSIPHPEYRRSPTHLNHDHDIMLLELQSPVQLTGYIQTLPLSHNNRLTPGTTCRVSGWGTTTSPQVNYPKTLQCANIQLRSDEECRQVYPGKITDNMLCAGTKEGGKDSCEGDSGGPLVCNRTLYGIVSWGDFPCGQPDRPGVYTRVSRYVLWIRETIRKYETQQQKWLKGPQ
Procedure: as §2

Trypsin = test: Protease panel: Trypsin; type: biochemical; settings: supplement panel table, test and control compound
Procedure: as §2

Thrombin a = biological target: T1, Thrombin a (Homo sapiens, UniProt P00734); test: Protease panel: Thrombin a; type: biochemical; settings: supplement panel table, test and control compound
T1 construct: Reaction Biology Corporation (contract testing)
Procedure: as §2

Matriptase 2 = Matriptase 2 (Homo sapiens, UniProt Q8IU80); test: Protease panel: Matriptase 2; type: biochemical; settings: supplement panel table, test and control compound
Sequence of Matriptase 2 (Q8IU80 whole entry, species assumed): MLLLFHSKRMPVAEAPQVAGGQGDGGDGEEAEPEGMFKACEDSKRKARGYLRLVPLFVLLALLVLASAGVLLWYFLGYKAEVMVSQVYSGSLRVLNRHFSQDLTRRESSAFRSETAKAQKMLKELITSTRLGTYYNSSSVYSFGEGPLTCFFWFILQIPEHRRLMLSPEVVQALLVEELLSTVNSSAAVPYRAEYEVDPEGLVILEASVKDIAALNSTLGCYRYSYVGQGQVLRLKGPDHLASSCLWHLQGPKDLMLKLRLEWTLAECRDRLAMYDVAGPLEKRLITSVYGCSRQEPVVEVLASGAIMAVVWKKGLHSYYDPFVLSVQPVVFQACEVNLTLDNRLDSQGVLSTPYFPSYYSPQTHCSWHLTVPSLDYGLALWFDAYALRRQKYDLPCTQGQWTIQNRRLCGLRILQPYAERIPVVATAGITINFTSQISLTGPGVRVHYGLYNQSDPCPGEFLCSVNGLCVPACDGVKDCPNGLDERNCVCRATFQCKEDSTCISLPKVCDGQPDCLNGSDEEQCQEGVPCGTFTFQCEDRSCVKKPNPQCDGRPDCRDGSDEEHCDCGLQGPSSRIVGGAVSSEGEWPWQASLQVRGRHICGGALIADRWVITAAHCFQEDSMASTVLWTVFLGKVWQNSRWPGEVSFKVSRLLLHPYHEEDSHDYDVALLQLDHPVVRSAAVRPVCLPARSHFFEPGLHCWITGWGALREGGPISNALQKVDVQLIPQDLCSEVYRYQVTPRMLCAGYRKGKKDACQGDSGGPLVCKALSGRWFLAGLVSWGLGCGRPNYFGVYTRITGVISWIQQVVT
Procedure: as §2

Kallikrein 7 = Kallikrein 7 (Homo sapiens, UniProt P49862); test: Protease panel: Kallikrein 7; type: biochemical; settings: supplement panel table, test and control compound
Sequence of Kallikrein 7 (P49862 30-253, species assumed): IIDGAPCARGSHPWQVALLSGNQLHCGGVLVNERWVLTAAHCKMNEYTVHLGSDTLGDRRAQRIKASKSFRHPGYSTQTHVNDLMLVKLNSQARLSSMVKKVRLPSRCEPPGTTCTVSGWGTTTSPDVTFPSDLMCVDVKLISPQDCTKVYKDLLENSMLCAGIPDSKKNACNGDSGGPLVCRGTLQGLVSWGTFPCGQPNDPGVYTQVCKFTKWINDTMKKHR
Procedure: as §2

Tryptase g1 = biological target: T2, Tryptase g1 (Homo sapiens, UniProt Q9NRR2); test: Protease panel: Tryptase g1; type: biochemical; settings: supplement panel table, test and control compound
T2 construct: Reaction Biology Corporation (contract testing)
T2 sequence (Q9NRR2 20-321): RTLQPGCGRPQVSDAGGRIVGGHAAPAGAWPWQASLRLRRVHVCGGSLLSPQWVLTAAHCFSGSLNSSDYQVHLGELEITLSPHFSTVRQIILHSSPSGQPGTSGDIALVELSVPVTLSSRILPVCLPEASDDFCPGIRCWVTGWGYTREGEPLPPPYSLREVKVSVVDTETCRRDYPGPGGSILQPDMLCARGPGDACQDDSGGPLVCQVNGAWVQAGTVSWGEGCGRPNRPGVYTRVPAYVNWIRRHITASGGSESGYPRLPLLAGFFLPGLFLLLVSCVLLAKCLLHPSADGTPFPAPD
Procedure: as §2

Plasmin = biological target: T3, Plasmin (Homo sapiens, UniProt P00747); test: Protease panel: Plasmin; type: biochemical; settings: supplement panel table, test and control compound
T3 construct: Reaction Biology Corporation (contract testing)
T3 sequence (P00747 581-810 limits assumed, species assumed): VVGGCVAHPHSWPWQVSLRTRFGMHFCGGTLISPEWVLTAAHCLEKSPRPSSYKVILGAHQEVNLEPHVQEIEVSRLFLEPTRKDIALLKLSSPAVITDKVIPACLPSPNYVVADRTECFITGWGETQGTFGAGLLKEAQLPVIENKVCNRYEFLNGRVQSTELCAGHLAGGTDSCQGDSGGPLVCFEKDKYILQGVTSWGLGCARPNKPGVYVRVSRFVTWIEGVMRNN
T3 sequence (P00747 97-580 partner limits assumed, species assumed): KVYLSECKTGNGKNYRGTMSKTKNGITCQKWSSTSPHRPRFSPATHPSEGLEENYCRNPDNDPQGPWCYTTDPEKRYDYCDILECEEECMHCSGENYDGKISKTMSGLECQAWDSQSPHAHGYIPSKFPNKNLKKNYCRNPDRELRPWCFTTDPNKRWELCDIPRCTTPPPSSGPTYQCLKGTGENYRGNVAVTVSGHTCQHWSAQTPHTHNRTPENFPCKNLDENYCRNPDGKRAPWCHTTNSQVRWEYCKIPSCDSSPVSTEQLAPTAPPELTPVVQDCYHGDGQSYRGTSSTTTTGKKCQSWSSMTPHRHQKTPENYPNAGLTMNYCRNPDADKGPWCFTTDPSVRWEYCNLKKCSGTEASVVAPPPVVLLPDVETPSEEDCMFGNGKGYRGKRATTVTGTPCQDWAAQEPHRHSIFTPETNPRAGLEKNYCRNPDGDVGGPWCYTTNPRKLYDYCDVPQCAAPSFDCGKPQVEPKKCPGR
Procedure: as §2

FXa = biological target: T4, FXa (Homo sapiens, UniProt P00742); test: Protease panel: FXa; type: biochemical; settings: supplement panel table, test and control compound
T4 construct: FXa serine peptidase
T4 sequence (P00742 235-488 limits assumed): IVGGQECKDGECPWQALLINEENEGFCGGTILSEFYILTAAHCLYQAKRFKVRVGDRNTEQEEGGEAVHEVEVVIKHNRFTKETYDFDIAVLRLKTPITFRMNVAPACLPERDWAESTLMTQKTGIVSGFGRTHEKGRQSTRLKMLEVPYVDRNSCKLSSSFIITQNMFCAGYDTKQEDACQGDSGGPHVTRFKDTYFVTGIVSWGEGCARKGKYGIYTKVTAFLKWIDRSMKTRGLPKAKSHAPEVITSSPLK
T4 sequence (P00742 41-179 partner limits assumed): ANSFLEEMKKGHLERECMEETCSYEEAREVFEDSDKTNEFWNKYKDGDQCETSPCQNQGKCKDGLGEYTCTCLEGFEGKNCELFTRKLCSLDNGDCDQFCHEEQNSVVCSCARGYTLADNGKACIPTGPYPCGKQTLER
Procedure: as §2

Elastase = test: Protease panel: Elastase; type: biochemical; settings: supplement panel table, test and control compound
Procedure: as §2

Kallikrein 5 = Kallikrein 5 (Homo sapiens, UniProt Q9Y337); test: Protease panel: Kallikrein 5; type: biochemical; settings: supplement panel table, test and control compound
Sequence of Kallikrein 5 (Q9Y337 23-293, species assumed): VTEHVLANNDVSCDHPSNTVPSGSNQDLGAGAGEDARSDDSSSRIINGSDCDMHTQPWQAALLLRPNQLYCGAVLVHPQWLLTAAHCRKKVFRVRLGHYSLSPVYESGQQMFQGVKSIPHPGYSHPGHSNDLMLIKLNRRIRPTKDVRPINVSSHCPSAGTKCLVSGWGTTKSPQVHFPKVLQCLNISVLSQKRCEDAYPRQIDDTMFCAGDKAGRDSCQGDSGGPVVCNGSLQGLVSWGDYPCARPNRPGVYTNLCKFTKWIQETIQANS
Procedure: as §2

Kallikrein 12 = Kallikrein 12 (Homo sapiens, UniProt Q9UKR0); test: Protease panel: Kallikrein 12; type: biochemical; settings: supplement panel table, test and control compound
Sequence of Kallikrein 12 (Q9UKR0 18-248, species assumed): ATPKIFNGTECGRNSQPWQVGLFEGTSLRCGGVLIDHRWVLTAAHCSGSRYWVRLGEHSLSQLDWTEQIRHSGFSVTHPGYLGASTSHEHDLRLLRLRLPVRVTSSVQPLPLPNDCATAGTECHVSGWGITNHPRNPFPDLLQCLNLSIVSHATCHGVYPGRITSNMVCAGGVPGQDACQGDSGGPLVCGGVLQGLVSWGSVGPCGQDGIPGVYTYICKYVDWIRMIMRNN
Procedure: as §2

Tryptase b2 = biological target: T5, Tryptase b2 (Homo sapiens, UniProt P20231); test: Protease panel: Tryptase b2; type: biochemical; settings: supplement panel table, test and control compound
T5 construct: Reaction Biology Corporation (contract testing)
T5 sequence (P20231 31-275): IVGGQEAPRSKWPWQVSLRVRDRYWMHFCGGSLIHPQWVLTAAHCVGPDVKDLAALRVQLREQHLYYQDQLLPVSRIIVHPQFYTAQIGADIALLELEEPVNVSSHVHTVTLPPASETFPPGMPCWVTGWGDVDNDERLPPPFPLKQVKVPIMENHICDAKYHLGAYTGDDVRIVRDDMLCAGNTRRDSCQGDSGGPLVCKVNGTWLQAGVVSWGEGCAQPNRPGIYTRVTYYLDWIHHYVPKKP
Procedure: as §2

Urokinase = biological target: T6, Urokinase (Homo sapiens, UniProt P00749); test: Protease panel: Urokinase; type: biochemical; settings: supplement panel table, test and control compound
T6 construct: Reaction Biology Corporation (contract testing)
Procedure: as §2

Plasma kallikrein = biological target: T7, Plasma kallikrein (Homo sapiens, UniProt P03952); test: Protease panel: Plasma kallikrein; type: biochemical; settings: supplement panel table, test and control compound
T7 construct: Reaction Biology Corporation (contract testing)
T7 sequence (P03952 20-638, species assumed): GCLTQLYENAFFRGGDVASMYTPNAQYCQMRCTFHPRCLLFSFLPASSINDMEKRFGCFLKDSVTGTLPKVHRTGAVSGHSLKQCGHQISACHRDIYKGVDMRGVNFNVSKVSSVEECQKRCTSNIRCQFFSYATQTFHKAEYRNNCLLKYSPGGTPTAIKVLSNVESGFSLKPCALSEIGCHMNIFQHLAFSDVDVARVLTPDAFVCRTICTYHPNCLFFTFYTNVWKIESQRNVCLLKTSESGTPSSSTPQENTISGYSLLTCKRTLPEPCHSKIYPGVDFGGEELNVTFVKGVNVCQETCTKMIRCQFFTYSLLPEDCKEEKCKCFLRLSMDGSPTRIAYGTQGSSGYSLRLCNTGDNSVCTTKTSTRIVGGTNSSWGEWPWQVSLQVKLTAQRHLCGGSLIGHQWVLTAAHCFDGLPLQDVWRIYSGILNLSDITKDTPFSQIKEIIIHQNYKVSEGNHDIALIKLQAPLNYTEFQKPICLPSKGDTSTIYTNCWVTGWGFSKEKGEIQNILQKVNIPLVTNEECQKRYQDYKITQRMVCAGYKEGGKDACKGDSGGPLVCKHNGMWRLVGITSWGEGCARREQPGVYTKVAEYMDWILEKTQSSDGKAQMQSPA
Procedure: as §2

Compound: CC(C)C[C@H](NC(=O)[C@H](Cc1ccccc1)NC(=O)c1cnccn1)B(O)O [Compound 1, bortezomib, reference compound]
- IC50 (ClpP1P2): 6 ± 0.5 µM
- MIC50 (M. tuberculosis H37Rv; read-out: MIC50 (μM) against M. tuberculosis H37Rv): 4.3 ± 1.3 µM (≈ 1.65 µg/mL)
- MIC90 (M. tuberculosis H37Rv; read-out: MIC90 (μM) against M. tuberculosis H37Rv): 12 ± 0.5 µM (≈ 4.61 µg/mL)
- GI50 [1]: 250 µM
- GI50 [2]: 400 µM
- MIC50 (Mycobacterium bovis BCG): 1.8 µM (≈ 0.692 µg/mL)
- M. smegmatis ΔprcAB MIC50 (M. smegmatis ΔprcAB): 6 ± 0 µM
- MIC50 (M. smegmatis wild-type): 5 µM (≈ 1.92 µg/mL)

Compound: CCOC(=O)c1ccc(OC(=O)CCCCCN=C(N)N)cc1 [Gabexate mesylate (GM), Gabexate mesylate]
- IC50 (Kallikrein 14): 0.969 µM
- IC50 (Kallikrein 13): 17.6 µM
- IC50 (Trypsin): 0.0669 µM
- IC50 (Thrombin a): 3.73 µM
- IC50 (Matriptase 2): 7.56 µM
- IC50 (Kallikrein 7): 29.3 µM
- IC50 (Tryptase g1): 0.0506 µM
- IC50 (Plasmin): 0.936 µM
- IC50 (FXa): 5.3 µM
- IC50 (Elastase): 1.81 µM
- IC50 (Kallikrein 5): 8.06 µM
- IC50 (Kallikrein 12): 0.351 µM
- IC50 (Tryptase b2): 0.0873 µM
- IC50 (Urokinase): 0.1 µM
- IC50 (Plasma kallikrein): 0.475 µM
